Measured values reported in patent US7927785B2, “Methods for in vitro expansion of hematopoietic stem cells” (The Board of Trustees of the University of Illinois, priority 2002, dated 2011).

Columns and labels:
[1] = test system: adult human bone marrow CD34+ cells; experiment: Ex vivo expansion culture: cell counts and CD34+CD90+ cell numbers; assay type: cell-based; settings: for Fold changes from the original cells: CD34+CD90+ cells; for Total counts ×10^5: start 1×10^5 CD34+ cells/well; for expansion of CD34+CD90+ cells / Absolute CD34+ Number (×10^4) / Absolute CD34+CD90+ Numbers (×10^4) / Total Mononuclear Cell Number (×10^4): 9 days with cytokines; for Absolute CD34+ Number (×10^4) / Absolute CD34+CD90+ Numbers (×10^4) / Total Mononuclear Cell Number (×10^4) / Fold Expansion of CD34+CD90+: mean of 3 ± SEM; for Fold Expansion of CD34+CD90+: compared to the primary cell numbers
Experimental: To promote cell division of isolated CD34^+ cells, a stroma-free suspension culture was established as previously described (Bazil et al., 1995). Tissue culture dishes (35 mm; Costar, Corning, N.Y.) were seeded with 1×10^5 CD34^+cells/well in 2.5 mL Iscove modified Dulbecco medium (IMDM) (Biowhittaker, Walkersville, Md.) containing 30% FBS and a cocktail of cytokines specifically thought to promote exit from G0/G1 in primitive HSC populations which consisted of 100 ng/mL recombinant stem cell factor (SCF), 100 ng/mL FLT-3 ligand, 100 ng/mL thrombopoetin (TPO) and 50 ng/mL of interleukin (IL)-3, (all from Amgen Inc., Thousand Oaks, Calif.).
Cells were maintained in the media and incubated at 37° C. in a 100%-humidified atmosphere containing 5% CO2 for 48 hours. After intial 16 hours of incubation cells were exposed to the demethylating agent, 5-aza2′deoxycitidine (5azaD) (Sigma Chemicals, St. Louis, Mo.) at a concentration of 10^−6M. After 48 hours, cells were washed by centrifugation and then equally distributed to new tissue culture dishes in 2.5 mL IMDM supplemented with 30% FBS containing cytokines known to promote terminal differentiation of HSC into multiple hematopoietic lineages. The cocktail of cytokines contained 100 ng/mL of SCF, 50 ng/ml of granulocyte colony-stimulating factor (G-CSF), 50 ng/mL of IL-3, 50 ng/ml of IL-6 and 5 units (U)/mL of recombinant erythropoietin (EPO) (Amgen Inc., Thousand Oaks, Calif.). Cells at this time point were exposed to Trichostatin (TSA) (Sigma Chemical., St. Louis, Mo.) at 5 ng/mL and the culture was continued for an additional 7 days. At the end of the culture period cells were counted for viability by the trypan blue exclusion method using an inverted microscope. 5-fluorouracil (5-FU) (Sigma Chemical., St. Louis, Mo.) was used at a concentration of 200 μg/ml and added at the 16 hour time point instead of 5azaD and the cultures carried on as described above with no addition of TSA.
The phenotypic characteristics of the CD34^+ cells were analyzed using FACS. After 9 days of culture, expanded marrow CD34^+ cells were analyzed for primitive HSC phenotype, previously defined, by using flow activated-cell sorter (FACS) (Becton Dickinson (BD) FACS Calibur, San Jose, Calif.). Cells were stained with anti-human CD34^+ moAb conjugated either to fluorescein isothiocyanate (FITC) or phycoerythrin (PE) and another moAb including anti-CD38, anti-CD117, anti-CD90. To determine the lineage positive cells a panel of moab all conjugated to FITC (anti-CD2, anti-CD14, anti-CD15, anti-CD19 and anti-GlyA) (all antibodies were purchased from BD) were utilized. All anaylsis were paired with the corresponding matched isotype control of the specific moAb utilized. All staining and washes were performed in DPBS (Biowhittaker, Walkersville Md.) and 0.5% BSA (Sigma, Chemicals Co., St. Louis, Mo.). Immediately prior to FACS anaylsis, […] propidium iodide (PI) (Sigma, Chemicals Co., St. Louis, Mo.) was added for the exclusion of nonviable cells for phenotypic analysis. Using Cell-Quest software (BD), at least 10,000 live cells were acquired for each analysis.

[2] = test system: adult human bone marrow CD34+ cells; experiment: Cell cycle analysis by FACS (SG2M %); assay type: cell-based; settings: for SG2M % 48 hours: 48 hours from the start of the experiment; for SG2M % 72 hours: 72 hours from the start of the experiment
Experimental: Table 4. TSA Increases the Number of Cycling Cells. Cell cycle analysis at 48 h and 72 h from the start of the experiment is shown. Cells were examined by FACS analysis for cell cycle. SG2M % indicates cells in active DNA synthesis and indicates cells that may be actively cycling. This increased cycling allows the incorporation of the hypomethylating agent 5azaD.

NOD/SCID mice = experiment: Hematopoietic colonies cloned from NOD/SCID mouse marrow 7 weeks after human grafts; assay type: in vivo; settings: for Estimated Number of Human Colonies: % human cells multiplied by total number of colonies; for % Human Cells: pooled colonies stained for human CD45/CD33, grafts 7 weeks earlier
Experimental: After 7 weeks of passage in vivo of human grafts in NOD/SCID mice, marrow cells from mice were then plated in methylcellulose assays at 100,000 cells/plate as previously described. After 14 days of incubation the number of hematopoietic colonies were enumerated.
Mice were given 300cGy of total body gamma irradiation and human grafts were injected via the tail vein. Cytokines including SCF, IL-3 and GM-CSF at 5 ug/mouse were injected intraperitoneally on alternate days following injection of human grafts during the first week of transplant. Sulfamethoxazole (40 mg/mL) and Trimethoprim (8 mg/mL)(SMX/TMZ; Elkins-Sinn, Cherry Hill, N.J.) were added in the drinking water for 3 days post injection and then subsequently for 3 days beginning the second week of transplant. Mice were sacrificed after 7 weeks. Femurs and tibias were flushed with Hank's balanced salt solution (HBSS) (Biowhittiker) with 2% FBS (Hyclone) and 0.02% sodium azide and cell counts performed. Cells were preincubated with 1 mg/ml of human gamma globulin in staining to block human Fc receptors. Murine Fc receptors were blocked by a second incubation of the cells in 2.4G2 (an anti-mouse Fc receptor moAb). Marrow cells were analyzed by flow cytometry to detect human cell engraftment as previously described.^29 Briefly to quantitate the total number of human cells present an aliquot of cells was stained with anti-CD45-FITC(BD) and anti-CD71-FITC(BD). This aliquot was also stained with anti-CD19-PE(BD) and cyanine-5-succinimidyl-labeled anti-CD34 (BD). After 7 weeks, marrow cells were plated in methylcellulose as previously described. Colonies from these CFC were then pooled and stained with moAb against CD33 and CD45 (BD) to assess the presence of human cells.

[3] = 9 days of culture, single agent

Structure (SMILES)	% CD34+ of all cells [1, 3]	Absolute CD34+ thy-1+ cells ×10^5 [1, 3]	Absolute CD34 counts ×10^5 [1, 3]	Fold changes from the original cells [1, 3]	Total counts ×10^5 [1, 3]	expansion of CD34+CD90+ cells [1]	Absolute CD34+ Number (×10^4) [1]	Absolute CD34+CD90+ Numbers (×10^4) [1]	Total Mononuclear Cell Number (×10^4) [1]	Fold Expansion of CD34+CD90+ [1]	SG2M % 48 hours [2]	SG2M % 72 hours [2]	Estimated Number of Human Colonies (NOD/SCID mice)	% Human Cells (NOD/SCID mice)	% CD34+ thy-1+ cells [1, 3]	secondary hematopoietic colonies from marrow of grafted mice (NOD/SCID mice; plated in semisolid media with human cytokines)
CC(/C=C/C(=O)NO)=C\[C@@H](C)C(=O)c1ccc(N(C)C)cc1 [TSA, Trichostatin A]	3.9%	0.31 ×10^5	1.7 ×10^5	1.4 fold	46 ×10^5	more limited expansion	19.0 ± 1.0 ×10^4	4.0 ± 1.0 ×10^4	470.0 ± 87.0 ×10^4	1.8 ± 0.4 fold	36%	41.6%	0	0%		
Nc1ncn([C@H]2C[C@H](O)[C@@H](CO)O2)c(=O)n1 [5azaD, 5-aza2′deoxycitidine]	26%	0.15 ×10^5	0.65 ×10^5	0.7 fold	2.5 ×10^5	more limited expansion	10.0 ± 4.0 ×10^4	4.0 ± 1.7 ×10^4	32.0 ± 5.0 ×10^4	1.7 ± 0.8 fold	36.5%	35.5%	9	12%	6%	formed significant numbers of secondary hematopoietic colonies
